Laboratory results: patent US5300629A, “Bactericidal and/or bacteriostatic peptides isolated from hemolymph of honeybees” (Plant Genetic Systems, N.V., priority 1987, dated 1994)
Converted amounts (≈) assume the structure as drawn. Where a SMILES comes first, the peptide text is derived from it.

Tests used:
Format in all cases: cell-based
[1] = tested on: Salmonella typhimurium ATCC 23565; experiment: Minimal inhibitory concentration in liquid culture; conditions: 200 μl rich medium, 10^4 log-phase bacteria
Bacillus alvei LMG 6922 = experiment: Minimal inhibitory concentration in liquid culture; conditions: 200 μl rich medium, 10^4 log-phase bacteria, + = no inhibition at maximal value
[2] = tested on: Erwinia salicis NCPPB 2530; experiment: Minimal inhibitory concentration in liquid culture; conditions: 200 μl rich medium, 10^4 log-phase bacteria
[3] = tested on: Agrobactierium tumefaciens DSM 3129; experiment: Minimal inhibitory concentration in liquid culture; conditions: 200 μl rich medium, 10^4 log-phase bacteria
[4] = tested on: Corynebacterium insidiosum NCPPB 1109; experiment: Minimal inhibitory concentration in liquid culture; conditions: 200 μl rich medium, 10^4 log-phase bacteria
Protocol: (§1) In addition the exact concentration was determined precisely by amino-acid analysis and an equal sample of natural Bee 6b was prepared, allowing to compare the bactericidal activity of both natural and synthetic apidaecins by means of growth inhibition assays in liquid cultures (see mat & Meth.). The minimal inhibitory concentrations (μg/ml) were determined in liquid culture : 200 μl of a rich medium (trypticase soy broth or nutrient broth) was inoculated with 10^4 log-phase bacteria. Peptide concentrations ranged between 0 and 200 μg/ml. The values express μg/ml; when no inhibition was noticed the maximal values are given (+200 μg/ml or +50 μg/ml). All peptides were chemically synthesized, except for bee 6b which is purified from bee lymph.

[5] = tested on: Xanthomonas campestris pv. vesicatoria LMG 905; experiment: Minimal inhibitory concentration in liquid culture; conditions: 200 μl rich medium, 10^4 log-phase bacteria, + = no inhibition at maximal value
Protocol: as §1

[6] = tested on: Corynebacterium michiganense pv. michiganense NCPPB 1573; experiment: Minimal inhibitory concentration in liquid culture; conditions: 200 μl rich medium, 10^4 log-phase bacteria, + = no inhibition at maximal value
Protocol: as §1

Shigella flexneri CP 87 = experiment: Minimal inhibitory concentration in liquid culture; conditions: 200 μl rich medium, 10^4 log-phase bacteria
Protocol: as §1

[7] = tested on: Rhizobium meliloti ZB 314; experiment: Minimal inhibitory concentration in liquid culture; conditions: 200 μl rich medium, 10^4 log-phase bacteria
[8] = tested on: Pseudomonas syringae pv. tomato NCPPB 1106; experiment: Minimal inhibitory concentration in liquid culture; conditions: 200 μl rich medium, 10^4 log-phase bacteria
[9] = tested on: Bacillus megaterium QB 1551; experiment: Minimal inhibitory concentration in liquid culture; conditions: 200 μl rich medium, 10^4 log-phase bacteria, + = no inhibition at maximal value
E. coli NCTC 9001 = experiment: Bactericidal activity, method not stated; conditions: lyophilized apidaecins resuspended in PBS
[10] = tested on: Bacillus subtilis NRRL-B-237; experiment: Minimal inhibitory concentration in liquid culture; conditions: 200 μl rich medium, 10^4 log-phase bacteria, + = no inhibition at maximal value
Salmonella Newport CD 94 = experiment: Minimal inhibitory concentration in liquid culture; conditions: 200 μl rich medium, 10^4 log-phase bacteria
[11] = tested on: Pseudomonas syringae pv. tabaci NCPPB 1237; experiment: Minimal inhibitory concentration in liquid culture; conditions: 200 μl rich medium, 10^4 log-phase bacteria
[12] = tested on: Pseudomonas syringae pv. maculicola NCPPB 1776; experiment: Minimal inhibitory concentration in liquid culture; conditions: 200 μl rich medium, 10^4 log-phase bacteria
[13] = tested on: Citrobacter freundii ATCC 8090; experiment: Minimal inhibitory concentration in liquid culture; conditions: 200 μl rich medium, 10^4 log-phase bacteria
[14] = tested on: Erwinia carotovora var carotovora NCPPB 312; experiment: Minimal inhibitory concentration in liquid culture; conditions: 200 μl rich medium, 10^4 log-phase bacteria
[15] = tested on: Erwinia carotovora var atroseptica LMG 2385; experiment: Minimal inhibitory concentration in liquid culture; conditions: 200 μl rich medium, 10^4 log-phase bacteria
[16] = tested on: Pseudomonas solanacearum ATCC 11696; conditions: 200 μl rich medium, 10^4 log-phase bacteria
[17] = tested on: Escherichia coli NCTC 9001; experiment: Minimal inhibitory concentration in liquid culture; conditions: 200 μl rich medium, 10^4 log-phase bacteria
[18] = tested on: Xanthomonas campestris pv. campestris A 902; experiment: Minimal inhibitory concentration in liquid culture; conditions: 200 μl rich medium, 10^4 log-phase bacteria, + = no inhibition at maximal value
[19] = tested on: Pseudomonas paucimobilis ATCC 29837; experiment: Inhibition zone assay; parameters: key: --: "-" means that no inhibition has been found; conditions: L 5 ug
[20] = tested on: Xanthomonas campestris pv. oryzae IRN 235; parameters: key: --: "-" means that no inhibition has been found
[21] = tested on: Pseudomonas acidovorans CuETM 83-109; experiment: Inhibition zone assay; parameters: key: --: "-" means that no inhibition has been found; conditions: I and B 10 ul, L 5 ug
[22] = tested on: Agrobacterium tumefaciens DSM 3129; experiment: Inhibition zone assay; parameters: key: --: "-" means that no inhibition has been found; conditions: I and B 10 ul, L 5 ug
[23] = tested on: Staphylococcus hominis STH B3; experiment: Inhibition zone assay; parameters: key: --: "-" means that no inhibition has been found; conditions: L 5 ug
[24] = tested on: Serratia liquefaciens DSM 30125; experiment: Inhibition zone assay; parameters: key: --: "-" means that no inhibition has been found; conditions: I 10 ul, L 5 ug
[25] = tested on: Micrococcus lysodeikticus LMG 4050; experiment: Inhibition zone assay; conditions: I and B 10 ul, L 5 ug
[26] = tested on: Klebsiella aerogenes 1961 E; experiment: Inhibition zone assay; parameters: key: --: "-" means that no inhibition has been found; conditions: I and B 10 ul, L 5 ug
[27] = tested on: Serratia plymuthica ATCC 183; experiment: Inhibition zone assay; parameters: key: --: "-" means that no inhibition has been found; conditions: I and B 10 ul, L 5 ug
[28] = tested on: Rhizobium meliloti ZB 314; experiment: Inhibition zone assay; parameters: key: --: "-" means that no inhibition has been found; conditions: I and B 10 ul, L 5 ug
[29] = tested on: Erwinia carotovora var. atroseptica NCPPB 549; experiment: Inhibition zone assay; parameters: key: --: "-" means that no inhibition has been found; conditions: I and B 10 ul, L 5 ug
[30] = tested on: Pseudomonas aureofaciens CCEB 518; experiment: Inhibition zone assay; parameters: key: --: "-" means that no inhibition has been found; conditions: I and B 10 ul, L 5 ug
[31] = tested on: Agrobacterium radiobacter ATCC 19358; experiment: Inhibition zone assay; parameters: key: --: "-" means that no inhibition has been found; conditions: I and B 10 ul, L 5 ug
[32] = tested on: Rhodococcus equi ATCC 25729; experiment: Inhibition zone assay; conditions: I and B 10 ul, L 5 ug
[33] = tested on: Agrobacterium rhizogenes ATCC 11325; experiment: Inhibition zone assay; parameters: key: --: "-" means that no inhibition has been found; conditions: I and B 10 ul, L 5 ug
[34] = tested on: Azospirillum lipoferum ATCC 29707; experiment: Inhibition zone assay; parameters: key: --: "-" means that no inhibition has been found; conditions: I and B 10 ul, L 5 ug
[35] = tested on: Bacillus subtilis NRRL B-237; experiment: Inhibition zone assay; parameters: key: --: "-" means that no inhibition has been found; conditions: I and B 10 ul, L 5 ug
[36] = tested on: Corynebacterium insidiosum NCPPB 1109; experiment: Inhibition zone assay; conditions: I and B 10 ul, L 5 ug
Protocol: Whole lymph or purified components, resuspended in PBS to a final volume equal to the starting material (heated lymph), was applied in 3 mm wells on agar plates seeded with the test organisms. Antibacterial activity was determined by measuring the growth-inhibition zones (in mm).

[37] = tested on: Xanthomonas campestris pv. graminis NCPPB 2700; experiment: Inhibition zone assay; parameters: key: --: "-" means that no inhibition has been found; conditions: I and B 10 ul, L 5 ug
[38] = tested on: Enterobacter agglomerans Gilardi 1081; experiment: Inhibition zone assay; parameters: key: --: "-" means that no inhibition has been found; conditions: I and B 10 ul, L 5 ug
[39] = tested on: Janthinobacterium lividum Sneath HB; experiment: Inhibition zone assay; parameters: key: --: "-" means that no inhibition has been found; conditions: I and B 10 ul, L 5 ug
[40] = tested on: Serratia fonticola ATCC 298449; experiment: Inhibition zone assay; parameters: key: --: "-" means that no inhibition has been found; conditions: I and B 10 ul, L 5 ug
[41] = tested on: Bordetella bronchiseptica ATCC 19395; experiment: Inhibition zone assay; parameters: key: --: "-" means that no inhibition has been found; conditions: I and B 10 ul, L 5 ug
[42] = tested on: Flavobacterium devorans NRRL B-54; experiment: Inhibition zone assay; parameters: key: --: "-" means that no inhibition has been found; conditions: I and B 10 ul, L 5 ug
[43] = tested on: Bacillus thuringiensis DSM 3131; experiment: Inhibition zone assay; parameters: key: --: "-" means that no inhibition has been found; conditions: I and B 10 ul, L 5 ug
[44] = tested on: Listeria monocytogenes B5; experiment: Inhibition zone assay; parameters: key: --: "-" means that no inhibition has been found; conditions: L 5 ug
[45] = tested on: Erwinia salicis NCPPB 2530; experiment: Inhibition zone assay; parameters: key: --: "-" means that no inhibition has been found; conditions: I and B 10 ul, L 5 ug
[46] = tested on: Corynebacterium fascians NCPPB 1488; experiment: Inhibition zone assay; parameters: key: --: "-" means that no inhibition has been found; conditions: I and B 10 ul, L 5 ug
[47] = tested on: Pseudomonas cepacia ATCC 25416; experiment: Inhibition zone assay; parameters: key: --: "-" means that no inhibition has been found; conditions: I and B 10 ul, L 5 ug
[48] = tested on: Proteus morganii CuETM 77-83; experiment: Inhibition zone assay; parameters: key: --: "-" means that no inhibition has been found; conditions: I and B 10 ul, L 5 ug
[49] = tested on: Xanthomonas campestris pv. vesicatoria XV82-4; experiment: Inhibition zone assay; parameters: key: --: "-" means that no inhibition has been found; conditions: I and B 10 ul, L 5 ug
[50] = tested on: Bacillus megaterium QMB 1551; experiment: Inhibition zone assay; conditions: I and B 10 ul, L 5 ug
[51] = tested on: Rhizobium phaseoli CIAT 899; experiment: Inhibition zone assay; parameters: key: --: "-" means that no inhibition has been found; conditions: I and B 10 ul, L 5 ug

CC[C@H](C)[C@H](NC(=O)[C@@H]1CCCN1C(=O)[C@H](CCCNC(=N)N)NC(=O)[C@H](CC(N)=O)NC(=O)[C@H](CC(N)=O)NC(=O)CN)C(=O)N[C@@H](Cc1ccc(O)cc1)C(=O)N[C@H](C(=O)N1CCC[C@H]1C(=O)N[C@@H](CCC(N)=O)C(=O)N1CCC[C@H]1C(=O)N[C@@H](CCCNC(=N)N)C(=O)N1CCC[C@H]1C(=O)N1CCC[C@H]1C(=O)N[C@@H](Cc1c[nH]cn1)C(=O)N1CCC[C@H]1C(=O)N[C@@H](CCCNC(=N)N)C(=O)N[C@@H](CC(C)C)C(=O)O)[C@@H](C)CC [Apid II] (H-GNNRPIYIPQPRPPHPRL-OH)
minimal inhibitory concentration [1]: 0.1 µg/mL (≈ 0.0471 µM) | minimal inhibitory concentration (Bacillus alvei LMG 6922): > 200 µg/mL | minimal inhibitory concentration [2]: 0.02 µg/mL (≈ 0.00942 µM) | minimal inhibitory concentration [3]: 0.2 µg/mL (≈ 0.0942 µM) | minimal inhibitory concentration [4]: 100 µg/mL (≈ 47.1 µM) | minimal inhibitory concentration [5]: > 50 µg/mL | minimal inhibitory concentration [6]: > 50 µg/mL | minimal inhibitory concentration (Shigella flexneri CP 87): 0.1 µg/mL (≈ 0.0471 µM) | minimal inhibitory concentration [7]: 0.02 µg/mL (≈ 0.00942 µM) | minimal inhibitory concentration [8]: 0.1 µg/mL (≈ 0.0471 µM) | minimal inhibitory concentration [9]: 100 µg/mL | bactericidal activity (E. coli NCTC 9001): possessed a bactericidal activity | minimal inhibitory concentration [10]: > 200 µg/mL | minimal inhibitory concentration (Salmonella Newport CD 94): 0.2 µg/mL (≈ 0.0942 µM) | minimal inhibitory concentration [11]: 1 µg/mL (≈ 0.471 µM) | minimal inhibitory concentration [12]: 0.5 µg/mL (≈ 0.236 µM) | minimal inhibitory concentration [13]: 0.2 µg/mL (≈ 0.0942 µM) | minimal inhibitory concentration [14]: 2.5 µg/mL (≈ 1.18 µM) | minimal inhibitory concentration [15]: 0.5 µg/mL (≈ 0.236 µM) | minimal inhibitory concentration [16]: 10 µg/mL (≈ 4.71 µM) | minimal inhibitory concentration [17]: 0.2 µg/mL (≈ 0.0942 µM) | minimal inhibitory concentration [18]: 50 µg/mL

chicken lysozyme: hen egg white lysozyme, comparison [reference compound]
diameter of growth-inhibition zone [19]: -- | diameter of growth-inhibition zone [20]: -- | diameter of growth-inhibition zone [21]: -- | diameter of growth-inhibition zone [22]: -- | diameter of growth-inhibition zone [23]: -- | diameter of growth-inhibition zone [24]: -- | diameter of growth-inhibition zone [25]: 9 mm | diameter of growth-inhibition zone [26]: -- | diameter of growth-inhibition zone [27]: -- | diameter of growth-inhibition zone [28]: -- | diameter of growth-inhibition zone [29]: -- | diameter of growth-inhibition zone [30]: -- | diameter of growth-inhibition zone [31]: -- | diameter of growth-inhibition zone [32]: 4 mm | diameter of growth-inhibition zone [33]: -- | diameter of growth-inhibition zone [34]: -- | diameter of growth-inhibition zone [35]: -- | diameter of growth-inhibition zone [36]: 6 mm | diameter of growth-inhibition zone [37]: -- | diameter of growth-inhibition zone [38]: -- | diameter of growth-inhibition zone [39]: -- | diameter of growth-inhibition zone [40]: -- | diameter of growth-inhibition zone [41]: -- | diameter of growth-inhibition zone [42]: -- | diameter of growth-inhibition zone [43]: -- | diameter of growth-inhibition zone [44]: -- | diameter of growth-inhibition zone [45]: -- | diameter of growth-inhibition zone [46]: -- | diameter of growth-inhibition zone [47]: -- | diameter of growth-inhibition zone [48]: -- | diameter of growth-inhibition zone [49]: -- | diameter of growth-inhibition zone [50]: 6 mm | diameter of growth-inhibition zone [51]: --
